{"source": "patent US20090182055A1", "about": "“FUNGICIDAL AGENT CONTAINING N-CHLOROTAURINE AND USE THEREOF” (priority 2000, published 2009)", "key": {"[1]": {"experiment": "treatment of rhinosinusitis patients by nasal catheter rinsing", "format": "in vivo, human", "source_text": "Treatments with traditional fungicidal agents have on the contrary previously led to no success.\nThe importance of the agent lies, among other things, in the fact that, in the case of the mucus tissue polyps occurring in rhinosinusitis, regression could be observed so that the previously successful standard therapy, namely operative removal, can be avoided by the use of the agent according to the invention.\nA person suffers from chronic rhinosinusitis with clear swelling of the mucus membranes in both maxillary sinuses with retention of secretion on the left, in ethmoid bone cells, sphenoidal sinus, and in the left frontal sinus. Labored nasal respiration. For 2 1/2 months increasing headaches at the back of the head, no improvement on antibiotic therapy.\nThe treatment with 1% NCT-Na took place over a total of 4 weeks, 3 times weekly, and included 12 treatments in all. Each time a 10-ml NCT-Na solution was applied by means of a nasal catheter (YAMIK) over a period of time of 12 minutes. Thereafter the rinsing solution was suctioned off.\npatient suffered from chronic rhinosinusitis for ca. 1 year with swelling of the mucus membranes and increased secretion in the nasal cavity and all its adjacent cavities, strong polyposis and loss of the sense of smell."}, "[2]": {"experiment": "treatment of patients with otitis externa with saturated strips", "format": "in vivo, human", "details": "changed daily", "experimental": "A group of 10 patients who suffered from otitis externa with affliction of the auditory canal were treated. For treatment, 12 cm long strips (tampons by Rauscher) were placed into the external auditory canal. The test group (5 persons) was treated with strips which were saturated with 1-ml 1% NCT-Na, the control group (5 persons) with strips which were saturated with 1-ml otosporin (content per ml: 10,000 IU polymyxin B sulfate, 3.5 mg neomycin as neomycin sulfate, 10 mg hydrocortisone).\nThe treatment was done over 5 days. The strips were changed daily."}, "[3]": {"system": "aspergillus, penicillum, fusarium, and candida in nasal mucus", "experiment": "kill-off time in vitro of fungi in nasal mucus", "format": "cell-based", "details": "1% NCT-Na added to nasal mucus (diluted 1:10) of rhinosinusitis", "experimental": "In the case of rhinosinusitis various species of fungus were found in the nasal mucus, e.g., aspergillus, penicillum, fusarium, and candida. If (diluted 1:10) 1% NCT-Na is added to this nasal mucus, then the kill-off time in vitro is less than 30 minutes."}, "[4]": {"experiment": "treatment of patients with ulcus cruris with saturated swabs", "format": "in vivo, human", "details": "Example 4, 1% NCT-Na versus 1% chloramine T control group", "experimental": "A group of 25 patients who suffered from ulcus cruris were treated. The treatment was done with swabs which were saturated with an aqueous solution of 1% NCT-Na (test group, 14 patients) or 1% chloramine T (control group, 11 patients) and applied directly to the ulcers and left there. The treatment was done over 5-14 days. The swabs were changed twice daily."}, "[5]": {"experiment": "tolerability in vivo at various application sites", "details": "eye, middle ear, outer ear, skin ulcers, oral cavity, bladder"}}}
{"compound": "O=S(=O)(O)CCNCl", "note": "[NCT-Na, N-chlorotaurine]", "values": [{"measurement": "formation of secretion", "setting": "[1]; Example 1, 1% NCT-Na, after 7 treatments", "result": "strong decline"}, {"measurement": "nasal respiration", "setting": "[1]; Example 1, 1% NCT-Na, after 9 treatments", "result": "clearly improved"}, {"measurement": "pains", "setting": "[1]; Example 1, person, 1% NCT-Na 10 ml, 3 times weekly, after the second application", "result": "complete remission of the pains"}, {"measurement": "polyposis nasi", "setting": "[1]; Example 2, 1% NCT-Na, at the end of the treatments (12 treatments, 4 weeks)", "result": "unambiguous regression"}, {"measurement": "sense of smell", "setting": "[1]; Example 2, patient, 1% NCT-Na 10 ml, 3 times weekly, after the sixth application", "result": "substantial restoration"}, {"measurement": "symptoms of rhinosinusitis (pains, head pressure, loss of sense of smell, increased secretion, polyp formation)", "setting": "[1]; trials with rhinosinusitis patients, treatment of internal nasal surfaces with NCT-Na solution", "result": "improved substantially"}, {"measurement": "tolerability", "setting": "[2]; Example 3, strips saturated with 1 ml 1% NCT-Na in external auditory canal, 5 days", "result": "well tolerated"}, {"measurement": "period until healing, on average", "setting": "[2]; Example 3, strips saturated with 1 ml test solution", "result": 3, "unit": "days"}, {"measurement": "kill-off time in vitro", "setting": "[3]", "result": "less than 30 minutes"}, {"measurement": "pains after application of the solution", "setting": "[4]", "result": "significantly less pains"}, {"measurement": "tolerability in vivo", "setting": "[5]", "result": "tolerated outstandingly"}]}
